Our source for the IC50 values is patent US20200317642A1, “AMINE-SUBSTITUTED HETEROCYCLIC COMPOUNDS AS EHMT2 INHIBITORS AND DERIVATIVES THEREOF” (Epizyme, Inc., priority 2017, published 2020).

One experiment deals with T1, EHMT1 (Homo sapiens, UniProt Q9H9B1).
T1 sequence (Q9H9B1 1-1298): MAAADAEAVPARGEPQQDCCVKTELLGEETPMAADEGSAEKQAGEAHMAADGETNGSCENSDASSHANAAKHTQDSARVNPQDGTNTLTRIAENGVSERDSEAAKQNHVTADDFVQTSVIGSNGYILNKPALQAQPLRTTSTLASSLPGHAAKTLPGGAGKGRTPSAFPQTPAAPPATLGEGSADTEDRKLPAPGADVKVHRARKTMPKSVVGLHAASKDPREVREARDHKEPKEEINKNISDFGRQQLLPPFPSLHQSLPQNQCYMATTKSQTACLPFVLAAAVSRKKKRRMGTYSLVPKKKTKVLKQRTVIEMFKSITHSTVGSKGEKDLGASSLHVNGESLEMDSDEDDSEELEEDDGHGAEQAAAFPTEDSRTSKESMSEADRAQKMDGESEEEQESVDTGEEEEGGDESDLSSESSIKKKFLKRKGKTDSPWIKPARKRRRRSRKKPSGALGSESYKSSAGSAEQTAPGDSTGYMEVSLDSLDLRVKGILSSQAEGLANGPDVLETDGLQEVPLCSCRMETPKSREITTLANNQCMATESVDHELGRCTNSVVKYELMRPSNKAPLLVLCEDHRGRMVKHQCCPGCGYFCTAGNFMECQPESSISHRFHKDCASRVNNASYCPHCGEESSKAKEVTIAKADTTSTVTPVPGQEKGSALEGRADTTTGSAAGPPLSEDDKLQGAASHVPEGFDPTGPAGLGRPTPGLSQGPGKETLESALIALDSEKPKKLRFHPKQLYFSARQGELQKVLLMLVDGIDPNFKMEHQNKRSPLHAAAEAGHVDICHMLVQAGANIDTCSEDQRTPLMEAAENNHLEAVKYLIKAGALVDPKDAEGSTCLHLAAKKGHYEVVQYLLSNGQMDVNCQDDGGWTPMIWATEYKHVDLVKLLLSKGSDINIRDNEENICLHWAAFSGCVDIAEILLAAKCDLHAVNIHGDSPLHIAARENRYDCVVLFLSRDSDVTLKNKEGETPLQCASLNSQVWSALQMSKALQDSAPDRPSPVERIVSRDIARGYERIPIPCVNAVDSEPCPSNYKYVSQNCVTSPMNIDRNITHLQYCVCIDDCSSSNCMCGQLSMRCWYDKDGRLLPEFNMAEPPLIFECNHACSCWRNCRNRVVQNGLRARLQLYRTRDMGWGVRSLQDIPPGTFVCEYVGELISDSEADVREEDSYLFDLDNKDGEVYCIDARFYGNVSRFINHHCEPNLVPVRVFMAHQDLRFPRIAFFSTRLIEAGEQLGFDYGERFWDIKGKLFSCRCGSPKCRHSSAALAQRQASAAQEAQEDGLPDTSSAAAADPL
Briefly: EHMT1 PEP enzyme assay. The following applies: Table 3A; read-out: EHMT1 (IC50 μM). The format is biochemical.

The subject of experiment [1] is H3K9me2 in MDA-MB-231 cells. In words: MDA-MB-231 H3K9me2 in-cell western assay (EHMT2 ICW). The experiment is classed as cell-based. The following applies: Homo sapiens, Table 3A, read-out: ICW (IC50 μM). In a few lines: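 MDA-MB-231 cells (3,000/well) were exposed to compound for 48 h at 37 °C, 30 min at room temperature, then a further 48 h. Fixed cells were immunostained for H3K9me2 with DRAQ5 co-stain and read by infrared imaging at 700/800 nm. Inhibition was set against DMSO and UNC0638 wells; IC50 from four-parameter fit (top 100%, bottom 0%), triplicates.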

For the compound `CNC1=Nc2cc(-n3cc(CN4CCC4)cn3)c(Cl)cc2C12CCC2` [Compound A17, 6′-(4-(azetidin-1-ylmethyl)-1H-pyrazol-1-yl)-5′-chloro-N-methylspiro[cyclobutane-1,3′-indol]-2′-amine], the IC50 on EHMT1 was in the range of 0.01 to 0.1 µM; in experiment [1] it was 0.1 to 1 µM.
Consider `CNc1cc(C)nc(Nc2ccc(OC)c(-n3cc4c(n3)CCNC4)c2F)n1` [Compound A19, N2-(2-fluoro-4-methoxy-3-(4,5,6,7-tetrahydro-2H-pyrazolo[4,3-c]pyridin-2-yl)phenyl)-N4,6-dimethylpyrimidine-2,4-diamine], for which the IC50 (at EHMT1; in experiment [1]) was 0.1 to 1 µM each time.
On to `CNCc1cn(-c2c(OC)cc3c(c2F)N=C(NC)C32CCC2)nn1` [Compound A21], for which the IC50 on EHMT1 was 0.01 to 0.1 µM; in experiment [1], 0.1 to 1 µM.
With `CNCc1cn(-c2c(OC)cc3c(c2F)N=C(N)C32CCC2)nn1` [Compound A22], the values for the IC50 (at EHMT1; in experiment [1]) were 0.01 to 0.1 µM and 0.1 to 1 µM, respectively.

In general, IC50 refers to the concentration at which inhibition is half-maximal.
